Test results from article PMC10055976, “Selection and evolution of disulfide-rich peptides via cellular protein quality control” (Chemical Science, 2023).
Where a SMILES comes first, the peptide text is derived from it. Bridges are numbered along the chain shown (N, C = ends).

Columns and labels:
[1] = Solution NMR structure and disulfide pairing of drp1; type: physicochemical; conditions: oxidized drp1, ~1 mM, 80% perdeuterated acetonitrile / 20% H2O, 302 K
From the text: We then deep-sequenced the DRPs enriched in P9, and a total of ∼1404 different sequences with the expected cysteine patterns were obtained (3 different scaffolds: 256, 742 and 406, respectively; dataset S3 and Fig. 4a). Sequences with stop codon(s) are very rare compared to that found in the previous selection (dataset S4), further confirming the success of the second-generation PQC-select. […] To chemically examine the foldability of the selected DRPs, four sequences were randomly selected for synthesis and oxidation. All of them can be specifically oxidized to a major product as determined using HPLC (Fig. 4b and S7 ^†). […] The disulfide pairing of drp1 was clearly shown by the ^1H–^1H NOESY spectra (Fig. S10 ^†). […]
without target protein were then added to half of the blocked phage respectively and incubated for 30 min on a rotating wheel. […]
Reduced peptides (drp1 and 4, 10 μM) was dissolved in 100 mM phosphate buffer (pH 7.4) containing 0.2 mM GSSG. […] After that, oxidative folding of all the peptides was further analysed using HPLC and mass spectrometry .
Drp1 were dissolved in 80% perdeuterated acetonitrile and 20% H2O at a final concentration of about 1 mM . […] Two dimensional (2D) 1H, 15N/13C HSQC spectra were recorded to obtain chemical shifts of heavy atoms […]
in backbone and side-chains. […] The NMR data were processed using NMRPipe/NMRDraw and analyzed using NMRFAM-SPARKY5. […]

[2] = Oxidative folding of peptides (HPLC); type: physicochemical; conditions: drp1 and drp4: 10 μM, 100 mM phosphate pH 7.4, 0.2 mM GSSG, drp2, drp3, k-1, k-2: 10 μM, same buffer with 6 M Gu·HCl and 0.2 mM GSSG, overnight, 37 °C
From the text: We then deep-sequenced the DRPs enriched in P9, and a total of ∼1404 different sequences with the expected cysteine patterns were obtained (3 different scaffolds: 256, 742 and 406, respectively; dataset S3 and Fig. 4a). Sequences with stop codon(s) are very rare compared to that found in the previous selection (dataset S4), further confirming the success of the second-generation PQC-select. […] To chemically examine the foldability of the selected DRPs, four sequences were randomly selected for synthesis and oxidation. All of them can be specifically oxidized to a major product as determined using HPLC (Fig. 4b and S7 ^†). […] The disulfide pairing of drp1 was clearly shown by the ^1H–^1H NOESY spectra (Fig. S10 ^†).
Fig. 4 Identification and application of new DRPs selected from the second-generation PQC-select. (a) Top 5 enriched sequences for the three different scaffolds obtained from the second-generation PQC-select, scaffold M-2 (top), scaffold M-6 (middle) and scaffold M-9 (bottom). (b) HPLC chromatograms showing the oxidation of drp1, drp2, drp3 and drp4 in phosphate buffers (pH 7.4, 100 mM) containing 0.2 mM GSSG or 6 M Gu·HCl and 0.2 mM GSSG. […]
Reduced peptides (drp1 and 4, 10 μM) was dissolved in 100 mM phosphate buffer (pH 7.4) containing 0.2 mM GSSG. […] After that, oxidative folding of all the peptides was further analysed using HPLC and mass spectrometry . […]

[3] = molecular target: T1, Keap1 kelch domain protein (Residues 321-609) (Homo sapiens, UniProt Q14145); test: Surface plasmon resonance (SPR) assay of oxidized peptides; type: binding; conditions: for Binding affinity to Keap1 (in words): major oxidized product, SPR, preliminary; for Binding affinity to Keap1 (in words) / SPR sensorgrams: binding of Keap1 (in words): 25 °C, pH 7.4; for SPR sensorgrams: binding of Keap1 (in words): oxidized peptide, HPLC purity >95%
T1 construct: Keap1 kelch domain protein (Residues 321-609, Homo Sapiens); made in house
T1 sequence (Q14145 321-609): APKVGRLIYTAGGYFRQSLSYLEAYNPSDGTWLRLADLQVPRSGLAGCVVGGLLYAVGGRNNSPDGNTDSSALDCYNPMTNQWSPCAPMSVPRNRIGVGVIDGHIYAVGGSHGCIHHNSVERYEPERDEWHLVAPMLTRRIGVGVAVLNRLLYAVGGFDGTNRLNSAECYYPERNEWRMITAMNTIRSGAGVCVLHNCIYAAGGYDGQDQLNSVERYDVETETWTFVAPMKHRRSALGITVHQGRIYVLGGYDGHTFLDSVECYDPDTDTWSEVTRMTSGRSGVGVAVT

Folding in solution by 1H–1H TOCSY (in words) [1]	Molecule	3D structure and disulfide pairing by NMR (in words) ([1]; PDB 8GUC, 15 lowest-energy structures)	Oxidative folding outcome (in words) [2]	Binding affinity to Keap1 (in words) [3]	SPR sensorgrams: binding of Keap1 (in words) ([3]; 50-3200 nM)	Kd ([3]; oxidized product (major), Biacore T200, 25 °C, biotinylated Keap1 on CAP chip, 10 mM phosphate pH 7.4, 50 μM EDTA, 0.05% Tween 20, 50-3200 nM, multiple cycle kinetics, 1:1 binding model, read-out: KD (equilibrium dissociation constant, SPR)) [nM]	kon ([3]; oxidized product, Biacore T200, 25 °C, 10 mM phosphate pH 7.4, 50 μM EDTA, 0.05% Tween 20, multiple cycle kinetics, 1:1 binding model, local fit, read-out: ka (association rate constant)) [M⁻¹ s⁻¹]	koff ([3]; oxidized product, Biacore T200, 25 °C, 10 mM phosphate pH 7.4, 50 μM EDTA, 0.05% Tween 20, multiple cycle kinetics, 1:1 binding model, local fit, read-out: kd (dissociation rate constant)) [s⁻¹]
well-folded in solution	H-GCPPCRFTLSPWVSPCSNPHWPIRAMCNDSVPCPPC-NH2 (also: bicyclic or more (positions not given here)) [drp1, CPPC disulfide-rich peptide selected by PQC-select; PDB 8GUC]	irregular but rigid loops and a short α-helix constrained through three disulfide bonds with the two CPPC motifs paired parallelly						
	CC[C@H](C)[C@@H]1NC(=O)[C@@H]2CCCN2C(=O)[C@H](CCCNC(=N)N)NC(=O)[C@H](CCCNC(=N)N)NC(=O)[C@H]([C@@H](C)O)NC(=O)CNC(=O)[C@H](CCC(N)=O)NC(=O)[C@@H]2CSSC[C@H](NC(=O)[C@H](CCSC)NC(=O)[C@H](C)NC(=O)[C@H](CCCNC(=N)N)NC1=O)C(=O)N[C@@H](CC(N)=O)C(=O)N[C@@H](CC(=O)O)C(=O)N[C@@H](CO)C(=O)N[C@@H](C(C)C)C(=O)N1CCC[C@H]1C(=O)N[C@H]1CSSC[C@H](NC(=O)[C@@H](N)Cc3c[nH]c4ccccc34)C(=O)N3CCC[C@H]3C(=O)N3CCC[C@H]3C(=O)N[C@@H](CSSC[C@@H](C(N)=O)NC(=O)[C@@H]3CCCN3C(=O)[C@@H]3CCCN3C1=O)C(=O)N[C@@H](CCCNC(=N)N)C(=O)N[C@@H](Cc1ccccc1)C(=O)N[C@@H]([C@@H](C)O)C(=O)N[C@@H](CC(C)C)C(=O)N[C@@H](CO)C(=O)N[C@@H](CCC(=O)O)C(=O)N[C@@H](CCC(=O)O)C(=O)N[C@@H]([C@@H](C)O)C(=O)NCC(=O)N[C@@H](CCC(=O)O)C(=O)N2 [k-1] (H-WCPPCRFTLSEETGECQGTRRPIRAMCNDSVPCPPC-NH2; disulfide 2-33, 5-36, 16-27 (inferred))		can be oxidized to a major product	submicromolar range	in a concentration-dependent manner	349	54800	0.0191
	H-WCPPCRFTLSPETGECQGTKRPIRAMCNDSVPCPPC-NH2 (also: bicyclic or more (positions not given here)) [k-2]		can be oxidized to a major product	submicromolar range	in a concentration-dependent manner			
